Series [1] is described as follows: Kinetic aqueous solubility by laser nephelometry. The class given is physicochemical.
Series [2] can be described thus: Chromatographic hydrophobicity index (CHI) logD by reverse-phase HPLC. It is filed as physicochemical.
The target of another series is T1, S1PR1 (Homo sapiens, UniProt P21453).
T1 construct: host or cells: CHO-K1 (PathHunter EDG1 β-Arrestin cell line)
The experiment in a line: PathHunter CHO-K1 EDG1 β-Arrestin recruitment assay. It is filed as cell-based. On the procedure: (§1) We selected human plasma stability as a model for human blood metabolism. […] S1PR1 activity was measured using a PathHunter β-Arrestin recruitment assay.[23]
[23] The PathHunter® CHO‐K1 EDG1 β‐Arrestin Cell Line (Discoverx) was used to assess agonist activity of the compounds. Briefly, compound at 5× desired concentration was added to cells and incubated at 37 °C for 90 min. Assay signal was generated through a single addition of PathHunter Detection reagent cocktail, followed by a one hour incubation at room temperature. Microplates were read following signal generation with a PerkinElmer Envision instrument for chemiluminescent signal detection. Percentage activity was calculated using the following formula: % Activity = 100% × (mean RLU of test sample − mean RLU of vehicle control)/(mean MAX control ligand − mean RLU of vehicle control).
(In general: Recruitment of arrestin is a read-out of receptor activation apart from second messengers.)

The nature of a further series: in vitro. Conditions: for half-life: human, plasma. It is filed as in vitro ADME, human. On the procedure:
as §1

A further series in a line: Human skin S9 stability. The class given is in vitro ADME. The following applies: human skin S9 fraction, skin S9 over 180 mins in the presence of enzymatic cofactors. From the text:
It may be that the esterases responsible for the metabolism of 12f are present in both human plasma and skin S9 fraction or that skin and plasma esterases have similar substrate affinities.

The next series relates to plaque psoriasis. Set-up: method as in PMID 25127208. Conditions: oral, phase II clinical trial of psoriasis; cited from earlier work.
In series [3] the test system is Langerhans cells migrating to the lymph node. Details: method as in PMID 19194476. The following applies: mice, topical application; cited from earlier work.
Where [4] appears, read: PathHunter β-Arrestin, n of 2, geometric mean, range in brackets.

SMILES strings stand for the structures. Bounds are passed on as bounds.

T1 sequence (P21453 whole entry): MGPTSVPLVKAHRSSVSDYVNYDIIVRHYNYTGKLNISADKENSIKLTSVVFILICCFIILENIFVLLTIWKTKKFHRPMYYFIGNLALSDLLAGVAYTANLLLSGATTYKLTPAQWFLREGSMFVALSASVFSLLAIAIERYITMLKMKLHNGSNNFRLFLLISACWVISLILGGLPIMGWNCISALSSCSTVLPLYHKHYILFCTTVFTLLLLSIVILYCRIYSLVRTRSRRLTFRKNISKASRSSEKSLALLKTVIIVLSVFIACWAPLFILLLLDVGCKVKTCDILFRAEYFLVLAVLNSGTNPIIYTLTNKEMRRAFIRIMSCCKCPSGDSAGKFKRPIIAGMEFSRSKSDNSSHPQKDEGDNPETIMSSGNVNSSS

With `CCC/N=C1\S/C(=C\c2ccc(C(=O)O)cc2)C(=O)N1c1ccccc1C` [Compound 4a], the Kinetic solubility in series [1] is reported as 163 µM. For the same compound, the “CHI logD” value in series [2] came out at 1.0. Further, the “S1PR1 pIC50” value on S1PR1 (setting [4]) is <6 (0).

Compound `CCC/N=C1\S/C(=C\c2ccc(C(=O)OC)c(Cl)c2)C(=O)N1c1ccccc1C` [Compound 5a] displayed a Kinetic solubility in series [1] of 39 µM. The same compound returned a half-life in the series “in vitro” above 3 h. Moreover, the “CHI logD” value in series [2] was above 4.4. Further, at S1PR1 (setting [4]), the “S1PR1 pIC50” value is recorded as 8.6 (0.1). Further, the “improvement in S1PR1 activity compared to 5b” value at S1PR1 (compared to 5b) was determined as 100 fold.

Compound `CCC/N=C1\S/C(=C\c2ccc(C(=O)OC)cc2)C(=O)N1c1ccccc1C` [Compound 5b] returned a Kinetic solubility in series [1] of 28 µM. In the series “in vitro”, this compound showed a half-life above 3 h. Moreover, the “CHI logD” value in series [2] is on record as above 4.4. Further, the “S1PR1 pIC50” value at S1PR1 (setting [4]) was 6.5 (0).

Take `CCC/N=C1\S/C(=C\c2ccc(C(=O)OCCO)cc2)C(=O)N1c1ccccc1C` [Compound 5c]: the half-life in “in vitro” was above 3 h. In addition, in series [2], the “CHI logD” value amounted to 3.4. The “S1PR1 pIC50” value on S1PR1 (setting [4]) is listed as 6.9 (0).

Turning to `CCC/N=C1\S/C(=C\c2ccc(C(=O)NCCO)cc2)C(=O)N1c1ccccc1C` [Compound 5d], in series [1], the Kinetic solubility is reported as above 250 µM. For the same compound, in the series “in vitro”, the half-life is above 3 h. Further, the “CHI logD” value in series [2] is reported as 2.3. For the same compound, the “S1PR1 pIC50” value at S1PR1 (setting [4]) is 7.0 (0).

Consider `CCC/N=C1\S/C(=C\c2ccc(OC[C@H](O)CO)c(Cl)c2)C(=O)N1c1ccccc1O` [Compound 6], for which the IC50 on S1PR1 (PathHunter β-Arrestin, n of 2, geometric mean, range in brackets, read-out: S1PR1 pIC50 (converted)) was 12.6 nM.

Regarding `CCC/N=C1\S/C(=C\c2ccc(C(=O)O)cc2)C(=O)N1c1ccccc1O` [Compound 11], the half-life in the series “in vitro” is above 3 h. Also, on S1PR1, the “S1PR1 modulator activity (in words)” value was “inactive”.

In the case of `CCC/N=C1\S/C(=C\c2ccc(C(=O)NCC(=O)N(C)C)cc2)C(=O)N1c1ccccc1O` [Compound 12a], in “in vitro”, the “metabolism in human plasma stability assay (in words)” value (“metabolism” for short) is “lack of metabolism” and the half-life is above 3 h. For the same compound, the “CHI logD” value in series [2] stood at 1.9.

As to `CCC/N=C1\S/C(=C\c2ccc(C(=O)OCCCO)cc2)C(=O)N1c1ccccc1O` [Compound 12b], the Kinetic solubility in series [1] worked out at 183 µM. The compound also returned a half-life in the series “in vitro” above 3 h. In addition, the “CHI logD” value in series [2] turned out to be 2.3.

`CCC/N=C1\S/C(=C\c2ccc(C(=O)OCC(O)CO)cc2)C(=O)N1c1ccccc1O` (stereo not drawn) [Compound 12c]: the Kinetic solubility in series [1] was above 250 µM. Also, the half-life in “in vitro” is above 3 h. The “CHI logD” value in series [2] is reported as 1.8.

The compound `CCC/N=C1\S/C(=C\c2ccc(C(=O)OCCN3CCOCC3)cc2)C(=O)N1c1ccccc1O` [Compound 12d] returned a Kinetic solubility in series [1] of 117 µM. The compound further yielded a half-life in the series “in vitro” of 3 h. For the same compound, in the series “Human skin S9 stability”, the half-life at 3 h was 2.53 h. Moreover, in series [2], the “CHI logD” value turned out to be 3.0.

As to `CCC/N=C1\S/C(=C\c2ccc(C(=O)OCC3COC(=O)O3)cc2)C(=O)N1c1ccccc1O` (stereo not drawn) [Compound 12e], in series [1], the Kinetic solubility stood at 79 µM. In addition, in the series “in vitro”, the “metabolism” value was “did not show sufficient clearance” and the half-life amounted to 1.02 h. For the same compound, in “Human skin S9 stability”, the half-life at 3 h is 0.667 h. The “CHI logD” value in series [2] was 2.8.

`CCC/N=C1\S/C(=C\c2ccc(C(=O)OCc3oc(=O)oc3C)cc2)C(=O)N1c1ccccc1O` [Compound 12f] had a Kinetic solubility in series [1] of 79 µM. In addition, in the series “in vitro”, the “metabolism” value is reported as “rapidly degraded” and the half-life stood at 0.15 h. For the same compound, the half-life at 3 h in the series “Human skin S9 stability” is 0.383 h. Besides, in series [2], the “CHI logD” value is reported as 3.3. Moreover, the “S1PR1 modulator activity (in words)” value on S1PR1 is “inactive”.

In the case of `CCC/N=C1\S/C(=C\c2ccc(CC(=O)OC)cc2)C(=O)N1c1ccccc1O` [Compound 15a], in the series “in vitro”, the half-life is above 3 h. For the same compound, the “CHI logD” value in series [2] is 3.2.

Take `CCC/N=C1\S/C(=C\c2ccc(CCC(=O)OC)cc2)C(=O)N1c1ccccc1O` [Compound 15b]: the Kinetic solubility in series [1] is on record as 79 µM. In the series “in vitro”, this compound yielded a half-life above 3 h. Also, the “CHI logD” value in series [2] turned out to be 3.5.

Take `CCC/N=C1\S/C(=C\c2ccc(OC[C@H](O)CO)c(Cl)c2)C(=O)N1c1ccccc1C` [Ponesimod, ponesimod, reference compound]: the Kinetic solubility in series [1] was determined as 110 µM. The compound also showed a half-life in the series “in vitro” above 3 h. In addition, in series [2], the “CHI logD” value is listed as 3.1. Further, in the series on plaque psoriasis, the “systemic side effects observed” value was “lymphopenia and transient bradycardia”. On S1PR1 (setting [4]), the “S1PR1 pIC50” value is 7.9 (0).

On to `CCCCCCCCc1ccc(CCC(N)(CO)CO)cc1` [fingolimod], for which the “number of Langerhans cells migrating to the lymph node” value in series [3] is “reduction”.

A word on the half-life: it is the time needed for the level to fall by half in the phase considered.

(Values after publication PMC6185871, “Discovery of super soft-drug modulators of sphingosine-1-phosphate receptor 1” (Bioorganic & Medicinal Chemistry Letters, 2018).)
